For this assay, the system named is T241 sarcoma cells. As to the kind of experiment: Lung and mediastinal tumor colonization after intravenous injection of T241 sarcoma cells. In kind it is in vivo, mice. The procedure: Sarcoma T241 (12), a dimethylbenzanthracene-induced tumor originally derived from a C57BL/6 mouse, was maintained as ascitic tumor in syngeneic C57BL/6 mice or B6AF1 compatible hybrids (Jackson Laboratory, Bar Harbor, Me.). The capacity of the cells of this tumor to induce platelet aggregation and coagulation was assayed in a conventional manner. […] The tumor cells, however, did display a moderate procoagulant activity as reflected by a shortened recalcified clotting time. The addition of 10^6 T241 cells to syngeneic citrated plasma reduced the clotting time to between 1/3 and 1/2 control levels. Another known property of these cells is the capacity to degrade type IV collagen.
Lung tumor colonies were induced by the intravenous injection of T241 sarcoma cells. One week-old ascitic tumor cells were separated by centrifugation (100 g for 10 min) at 4° C., washed twice with Hanks' solution and suspended in the same medium (125,000-250,000 cells per ml). The suspension contained monodispersed cells of high viability (95%). Two tenths of one ml of the suspension containing 25,000 or 50,000 cells were injected intravenously into male or female C57BL/6 mice (about 25 g), and into B6AF1 mice (25-30 g), respectively, the animals housed under identical conditions of temperature, photoperiodicity, and feeding, were killed 20 days later and the number of metastases counted with a Bausch & Lomb dissecting microscope.
Two tenths of one ml of extract or semipurified fractions (100-400 ug of protein) were injected intravenously through the tail vein two hours before and two and four hours after receiving the tumor cell inoculation. Controls were similarly injected, but with 20 mM Hepes, 10 mM CaCl2, pH 7.8 aqueous solution. Additional controls were treated with either one intravenous injection of 15 units of heparin (Elkins-Sinn, Cherry Hill, N.J.) or 2 units of Bothrops atrox venom (Atroxin, Sigma, St. Louis, Mo.) in 0.2 ml of saline given 1 hour before tumor inoculation.

Setting [1] is: C57BL/6J mice, T241 cells i.v., killed 20 days later.

Take heparin: under setting [1], the “Percentage of Mice with Tumors, Lung” value came out at 100 Percentage and the “Percentage of Mice with Tumors, Mediastinal” value was determined as 80 Percentage. In addition, the “Lung Tumors per Mouse, Median” value (C57BL/6J mice, excluding mice without lung tumors) is 5. Also, the “Diameter of Lung Tumors” value (C57BL/6J mice, mean and S.E.M., excluding mice without lung tumors) is 2.2 ± 0.1 mm. The “antimetastatic effect on lung and mediastinal tumors (in words)” value (T241 sarcoma cells i.v. in mice) is reported as “reduced only slightly”. Further, the “antimetastatic effect at much higher doses given more frequently” value (compared with the extract) is listed as “could not be reproduced”.

Source of the values: US4588587A, “Method of treatment to inhibit metastasis” (Pennsylvania Hospital, priority 1983, dated 1986).
